According to patent US7582803B2 (Amgen Inc., priority 2005, dated 2009):

The compounds below were run against T1, human GPR40 (Homo sapiens, UniProt O14842) (assay: Cell-based aequorin assay). Details: CHO cells stably transfected with GPR40 and aequorin; 0.01% HSA; aequorin luminescence; read-out: Relative EC50.
T1 construct: expressed in transfected cells; host or cells: CHO cells
Method: Cell-based aequorin assays were employed to characterize the modulatory activity of compounds on the GPR40 signaling pathway. In an exemplary assay, CHO cells were stably transfected with both GPR40 and Aequorin (Euroscreen). Cells were detached from the tissue culture dish with 2 mL of trypsin (0.25% (w/v)). Trypsinization was halted with 28 mL of Hanks Buffered Salt Solution containing 20 mM Hepes (H/HBSS) and 0.01% fatty acid-free human serum albumin (HSA). Coelantrazine is added to 1 ug/mL, and the cells were incubated for 2 hours at room temperature. Compounds were dissolved in DMSO for preparation of 10 mM stock solutions. Compounds were diluted in H/HBSS containing 0.01% HSA. Serial dilutions of the test compounds were prepared to determine dose response.
Aequorin luminescence measurements were made using an EG&G Berthold 96-well luminometer, and the response was measured over a 20 second interval after cells and compounds were mixed. The maximum relative light units was plotted to determine dose response. The EC50 (effective concentration to reach 50% maximal response) was determined from the dose response plot.
Table 1 presents representative data (EC50 values) obtained for exemplary compounds of the invention for the relative activation of human GPR40. […]

T1 sequence (O14842 whole entry): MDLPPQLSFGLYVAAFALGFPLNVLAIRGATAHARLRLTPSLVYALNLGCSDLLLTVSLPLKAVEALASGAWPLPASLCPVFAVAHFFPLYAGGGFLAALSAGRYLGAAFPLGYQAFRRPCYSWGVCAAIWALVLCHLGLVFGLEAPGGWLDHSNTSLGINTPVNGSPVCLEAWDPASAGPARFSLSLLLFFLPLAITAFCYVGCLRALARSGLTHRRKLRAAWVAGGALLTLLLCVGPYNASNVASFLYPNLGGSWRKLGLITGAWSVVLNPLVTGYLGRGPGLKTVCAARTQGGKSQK

EC50 | SMILES
0.01 to 0.1 µM | CC#C[C@@H](CC(=O)O)c1ccc(OC2c3ccccc3CC2C)cc1 (mixture of isomers) [Example 21, (3S)-3-[4-(2-Methyl-indan-1-yloxy)-phenyl]-hex-4-ynoic acid]
0.1 to 1 µM | CC#C[C@@H](CC(=O)O)c1ccc(OC2CCc3ccccc3C2)cc1 (stereo partly drawn) [Example 26, (3S)-3-[4-(1,2,3,4-Tetrahydro-naphthalen-2-yloxy)-phenyl]-hex-4-ynoic acid]
1 to 10 µM | O=C(O)CC(c1ccc(OC2Cc3ccccc3C2)cc1)c1ncco1 (racemic) [Example 32, (+/−)-3-(4-(2,3-Dihydro-1H-inden-2-yloxy)phenyl)3-(oxazol-2-yl)propanoic acid]
0.1 to 1 µM | CC#C[C@@H](CC(=O)O)c1ccc(OC2CCc3cc(-c4cc(OC)ccc4F)ccc32)cc1 (stereo partly drawn) [Example 55, (3S)-3-(4-(5-(2-Fluoro-5-methoxyphenyl)-2,3-dihydro-1H-inden-1-yloxy)phenyl)hex-4-ynoic acid]
0.1 to 1 µM | O=C(O)CC(c1ccc(OC2Cc3ccccc3C2)cc1)c1cccs1 (racemic) [Example 48, (+/−)-3-(4-(2,3-Dihydro-1H-inden-2-yloxy)phenyl)-3-(thiophen-2-yl)propanoic acid]
0.01 to 0.1 µM | CC#C[C@@H](CC(=O)O)c1ccc(OC2CCc3c(Br)cccc32)cc1 (stereo partly drawn) [Example 5, (3S)-3-[4-(4-Bromo-indan-1-yloxy)-phenyl]-hex-4-ynoic acid]
0.1 to 1 µM | Cn1cncc1[C@@H](CC(=O)O)c1ccc(OCc2ccc3c(c2)C(C)(C)CCC3(C)C)cc1 [Example 74, (S)-3-(1-methyl-1H-imidazol-5-yl)-3-(4-((5,5,8,8-tetramethyl-5,6,7,8-tetrahydronaphthalen-2-yl)methoxy)phenyl)propanoic acid]
0.01 to 0.1 µM | CC#C[C@@H](CC(=O)O)c1ccc(OC2CCc3ccccc32)cc1 (stereo partly drawn) [Example 46, (3S)-3-(4-(2,3-Dihydro-1H-inden-1-yloxy)phenyl)hex-4-ynoic acid]
0.1 to 1 µM | Cn1ccnc1[C@@H](CC(=O)O)c1ccc(OCc2cc3c(cc2Br)C(C)(C)CCC3(C)C)cc1 [Example 91, (S)-3-(4-((3-Bromo-5,5,8,8-tetramethyl-5,6,7,8-tetrahydronaphthalen-2-yl)methoxy)phenyl)-3-(1-methyl-1H-imidazol-2-yl)propanoic acid]
0.1 to 1 µM | CC#CC(CC(=O)O)c1ccc(OC2CCC(c3ccccc3)CC2)cc1 [Example 29, (R,S)-3-(4-(4-phenylcyclohexyloxy)phenyl)hex-4-ynoic acid]
> 10 µM | Cn1cnnc1[C@H](CC(=O)O)c1ccc(OCc2ccc3c(c2)C(C)(C)CCC3(C)C)cc1 [Example 83]
0.1 to 1 µM | O=C(O)CC(c1ccccc1)c1ccc(OC2CCc3cc(Br)ccc32)cc1 (racemic) [Example 41, (+/−)-3-[4-(5-Bromo-indan-1-yloxy)-phenyl]-3-phenyl-propionic acid]
0.01 to 0.1 µM | CC1(C)CCC(C)(C)c2cc(COc3ccc([C@H](CC(=O)O)c4ccon4)cc3)ccc21 [Example 76, (S)-3-(Isoxazol-3-yl)-3-(4-((5,5,8,8-tetramethyl-5,6,7,8-tetrahydronaphthalen-2-yl)methoxy)phenyl)propanoic acid]
< 0.01 µM | CC#C[C@@H](CC(=O)O)c1ccc(OC2CCc3cc(Cl)ccc32)cc1 (stereo partly drawn) [Example 15, (3S)-3-[4-(5-Chloro-indan-1-yloxy)-phenyl]-hex-4-ynoic acid]
1 to 10 µM | Cc1ccc(C(CC(=O)O)c2ccc(OC3CCc4cc(Cl)ccc43)cc2)s1 (racemic) [Example 23, (+/−)-3-(4-(5-Chloro-2,3-dihydro-1H-inden-1-yloxy)phenyl)-3-(5-methylthiophen-2-yl)propanoic acid]
1 to 10 µM | CC1(C)CCC(C)(C)c2cc(COc3ccc([C@@H](CC(=O)O)c4ccon4)cc3)ccc21 [Example 77, (R)-3-(Isoxazol-3-yl)-3-(4-((5,5,8,8-tetramethyl-5,6,7,8-tetrahydronaphthalen-2-yl)methoxy)phenyl)propanoic acid]
0.01 to 0.1 µM | CC#C[C@@H](CC(=O)O)c1ccc(OC2CCc3cc(C#N)ccc32)cc1 (stereo partly drawn) [Example 54, (3S)-3-(4-(5-Cyano-2,3-dihydro-1H-inden-1-yloxy)phenyl)hex-4-ynoic acid]
0.01 to 0.1 µM | Cn1nnnc1[C@@H](CC(=O)O)c1ccc(OCc2ccc3c(c2)C(C)(C)CCC3(C)C)cc1 [Example 81, (S)-3-(1-Methyl-1H-tetrazol-5-yl)-3-[4-(5,5,8,8-tetramethyl-5,6,7,8-tetrahydro-naphthalen-2-ylmethoxy)-phenyl]-propionic acid]
0.1 to 1 µM | O=C(O)CC(c1ccc(OC2CCc3cc(Br)ccc32)cc1)n1cccn1 (centres unmarked) [Example 47, 3-(4-(5-Bromo-2,3-dihydro-1H-inden-1-yloxy)phenyl)-3-(1H-pyrazol-1-yl)propanoic acid]

EC50 | SMILES
0.1 to 1 µM | O=C(O)CC(c1ccc(OC2Cc3ccccc3C2)cc1)c1ccc(F)cc1F (racemic) [Example 38, (+/−)3-(2,4-Difluorophenyl)-3-(4-(2,3-dihydro-1H-inden-2-yloxy)phenyl)propanoic acid]
0.1 to 1 µM | Cn1ccnc1[C@@H](CC(=O)O)c1ccc(OCc2ccc3c(c2)CCCC3)cc1 [Example 80, (S)-3-(i-Methyl-1H-imidazol-2-yl)-3-[4-(5,6,7,8-tetrahydro-naphthalen-2-ylmethoxy)-phenyl]-propionic acid]
0.1 to 1 µM | COc1ccc(F)c(-c2ccc3c(c2)CCC3Oc2ccc([C@@H](C=C(C)C)CC(=O)O)cc2)c1 (some centres unmarked) [Example 57]
0.1 to 1 µM | Cn1cnnc1[C@@H](CC(=O)O)c1ccc(OCc2ccc3c(c2)C(C)(C)CCC3(C)C)cc1 [Example 84]
> 10 µM | CC#C[C@H](CC(=O)O)c1ccc(OC2CCc3cc(-c4cccc(OCC)c4)ccc32)cc1 (stereo partly drawn) [Example 59, (3R)-3-(4-(5-(3-Ethoxyphenyl)-2,3-dihydro-1H-inden-1-yloxy)phenyl)hex-4-ynoic acid]
> 10 µM | CC#C[C@H](CC(=O)O)c1ccc(OC2CCc3cc(-c4cccc(OC(F)(F)F)c4)ccc32)cc1 (stereo partly drawn) [Example 63, (3R)-3-(4-(5-(3-(trifluoromethoxy)phenyl)-2,3-dihydro-1H-inden-1-yloxy)phenyl)hex-4-ynoic acid]
1 to 10 µM | CC#C[C@@H](CC(=O)O)c1ccc(OC2CCc3c2ccc(OC)c3OC)cc1 (stereo partly drawn) [Example 19, (3S)-3-[4-(4,5-Dimethoxy-indan-1-yloxy)-phenyl]-hex-4-ynoic acid]
> 10 µM | CC#C[C@H](CC(=O)O)c1ccc(OC2CCc3cc(-c4cccc(OC)c4)ccc32)cc1 (stereo partly drawn) [Example 62, (3R)-3-(4-(5-(3-Methoxyphenyl)-2,3-dihydro-1H-inden-1-yloxy)phenyl)hex-4-ynoic acid]
0.1 to 1 µM | O=C(O)CC(c1ccc(F)cc1)c1ccc(OC2CCc3cc(Br)ccc32)cc1 (racemic) [Example 42, (+/−)-3-[4-(5-Bromo-indan-1-yloxy)-phenyl]-3-(4-fluoro-phenyl)-propionic acid]
0.1 to 1 µM | O=C(O)CC1CCCc2cc(OC3Cc4ccccc4C3)ccc21 (racemic) [Example 53, (R/S)-2-(6-(2,3-Dihydro-1H-inden-2-yloxy)-1,2,3,4-tetrahydronaphthalen-1-yl)acetic acid]
> 10 µM | CC#C[C@H](CC(=O)O)c1ccc(OC2CCc3cc(-c4cccc(OC)c4OC)ccc32)cc1 (stereo partly drawn) [Example 61, (3R)-3-(4-(5-(2,3-Dimethoxyphenyl)-2,3-dihydro-1H-inden-1-yloxy)phenyl)hex-4-ynoic acid]
0.1 to 1 µM | CC#C[C@@H](CC(=O)O)c1ccc(OC2CCc3c(OC)ccc(OC)c32)cc1 (stereo partly drawn) [Example 20, (3S)-3-[4-(4,7-Dimethoxy-indan-1-yloxy)-phenyl]-hex-4-ynoic acid]
> 10 µM | Cn1ccnc1[C@@H](CC(=O)O)c1ccc(OCc2cc3c(cc2C2CC2)C(C)(C)CCC3(C)C)cc1 [Example 92, (S)-3-(4-((3-Cyclopopyl-5,5,8,8-tetramethyl-5,6,7,8-tetrahydronaphthalen-2-yl)methoxy)phenyl)-3-(1-methyl-1H-imidazol-2-yl)propanoic acid]
1 to 10 µM | O=C(O)CC(c1ccc(OC2Cc3ccccc3C2)cc1)c1c(F)cccc1F (racemic) [Example 39, (+/−)3-(2,6-Difluorophenyl)-3-(4-(2,3-dihydro-1H-inden-2-yloxy)phenyl)propanoic acid]
1 to 10 µM | O=C(O)CC(c1ccc(OC2CCc3cc(Cl)ccc32)cc1)c1ncco1 (racemic) [Example 33, (+/−)-3-(4-(5-Chloro-2,3-dihydro-1H-inden-1-yloxy)phenyl)-3-(oxazol-2-yl)propanoic acid]
> 10 µM | CC#C[C@H](CC(=O)O)c1ccc(OC2CCc3cc(-c4c(C)cc(C)cc4C)ccc32)cc1 (stereo partly drawn) [Example 64, (3R)-3-(4-(5-Mesityl-2,3-dihydro-1H-inden-1-yloxy)phenyl)hex-4-ynoic acid]
0.1 to 1 µM | CC#C[C@@H](CC(=O)O)c1ccc(OCCC2CCCCC2)cc1 [Example 69, (S)-3-(4-(2-cyclohexylethoxy)phenyl)hex-4-ynoic acid]
0.01 to 0.1 µM | CC#C[C@@H](CC(=O)O)c1ccc(OC2CCc3c(C)cccc32)cc1 (stereo partly drawn) [Example 16, (3S) 3-[4-(4-Methyl-indan-1-yloxy)-phenyl]-hex-4-ynoic acid]

SMILES | EC50
CC#C[C@@H](CC(=O)O)c1ccc(OC2CCc3ccc(-c4cc(C)ccc4OCCCC)cc32)cc1 (stereo partly drawn) [Example 12, (3S)-3-{4-[6-(2-Butoxy-5-methyl-phenyl)-indan-1-yloxy]-phenyl}-hex-4-ynoic acid] | 0.01 to 0.1 µM
